Assay results published in EP2931723B1, “NEW BICYCLIC COMPOUNDS AND THEIR USE AS ANTIBACTERIAL AGENTS AND -LACTAMASE INHIBITORS” (Fedora Pharmaceuticals Inc., priority 2012, dated 2014).
Like-named read-outs stand apart in the source and are kept apart here.

How the values were obtained:
Assay type in all cases: cell-based
E. coli ATCC 25922 = assay: MIC, antibacterial and synergistic activity; details: Escherichia coli, ATCC25922; E. coli ATCC 25922 (Wt); substance alone
A. baumanii JMI 2659 = assay: MIC, antibacterial and synergistic activity; details: Acinetobacter baumannii, JMI2659
E.coli JMI 4103 = assay: MIC, antibacterial and synergistic activity; details: Escherichia coli, JMI4103; E.coli JMI 4103 (KPC-2, Tem-1, CMY-Type); substance alone
E. coli JMI 4080 = assay: MIC, antibacterial and synergistic activity; details: Escherichia coli, JMI4080, E. coli JMI 4080 (Tem-10); substance alone
E. coli JMI 10768 = assay: MIC, antibacterial and synergistic activity; details: Escherichia coli, JMI10768; E. coli JMI 10768 (CTX-M15 (Weak ESBL)); substance alone
Method: (§1) In the Tables 10 - 12, compounds herein disclosed were tested in combination with various antibiotics against metallo β-lactamase producing bacteria. Table 3: Synergy of the inhibitor Ex. 1 (4 µg/mL) in combination with antibiotics

E. coli JMI 2665 = assay: MIC, antibacterial and synergistic activity; details: Escherichia coli
Method: as §1

E. coli JMI 2671 = assay: MIC, antibacterial and synergistic activity; details: Escherichia coli, JMI2671, E. coli JMI 2671 (VIM-19 (Cpase)); substance alone
Method: as §1

K. pneumo JMI 2699 = assay: MIC, antibacterial and synergistic activity; details: K. pneumo JMI 2699 (VIM-1, CTX-M3), substance alone
Method: as §1

K. pneumo JMI 4088 [1] = assay: MIC, antibacterial and synergistic activity; details: K. pneumo JMI 4088 (KPC-3 (Cpase)); substance alone
Method: as §1

P. aerug JMI 2686 [2] = assay: MIC, antibacterial and synergistic activity; details: P. aerug JMI 2686 (KPC-2 (Cpase)); substance alone
Method: as §1

E. coli JMI 2692 = assay: MIC, antibacterial and synergistic activity; details: Escherichia coli, JMI2692
Method: (§2) In the Tables 10 - 12, compounds herein disclosed were tested in combination with various antibiotics against metallo β-lactamase producing bacteria.

K. pneumo JMI 2693 = assay: MIC, antibacterial and synergistic activity; details: K. pneumo JMI 2693 (NDM-1 (Cpase)); substance alone
Method: as §2

K. pneumo JMI 2697 = assay: MIC, antibacterial and synergistic activity; details: K. pneumo JMI 2697 (IMP-4 (Cpase)); substance alone
Method: as §2

K. pneumo JMI 2681 = assay: MIC, antibacterial and synergistic activity
P. aerug JMI 149 = assay: MIC, antibacterial and synergistic activity
E. cloacae JMI 36 = assay: MIC, antibacterial and synergistic activity; details: Enterobacter cloacae, JMI36
[3] = system: metallo β-lactamase producing bacteria; assay: MIC in combination with various antibiotics against metallo β-lactamase producing bacteria (Tables 10-12); details: agent alone
Method: as §2

K.pneumo JMI 4109 = assay: MIC, antibacterial and synergistic activity; details: K.pneumo JMI 4109 (SHV-1, SHV-12); substance alone
K. pneumo JMI 2673 = assay: MIC, antibacterial and synergistic activity; details: K. pneumo JMI 2673 (CTX-M14 (ESBL)); substance alone
K. pneumo JMI 2674 [4] = assay: MIC, antibacterial and synergistic activity; details: K. pneumo JMI 2674 (CTX-M15 (ESBL)); substance alone
E. coli JMI 10767 = assay: MIC, antibacterial and synergistic activity; details: Escherichia coli, JMI10767; E. coli JMI 10767 (Wt); substance alone
E. coli JMI 10770 = assay: MIC, antibacterial and synergistic activity; details: Escherichia coli, JMI10770; E. coli JMI 10770 (CTX-M15 (Hyper ESBL)); substance alone
E. coli JMI 11103 = assay: MIC, antibacterial and synergistic activity; details: Escherichia coli, JMI11103, E. coli JMI 11103 (CTX-M15 (Intermediate ESBL)); substance alone
K. pneumo JMI 2674 [5] = assay: MIC, antibacterial and synergistic activity; details: K. pneumo JMI 2674 (CTX-M15 (ESBL)); substance alone; remark: listed apart in the source
Method: as §1

K. pneumo JMI 4106 = assay: MIC, antibacterial and synergistic activity; details: K. pneumo JMI 4106 (KPC-3, TEM-1, SHV-12, SHV-141), substance alone
K. pneumo JMI 4088 [6] = assay: MIC, antibacterial and synergistic activity; details: K. pneumo JMI 4088 (KPC-3 (Cpase)); substance alone; remark: listed apart in the source
P. aerug JMI 2686 [7] = assay: MIC, antibacterial and synergistic activity; details: P. aerug JMI 2686 (KPC-2 (Cpase)); substance alone; remark: listed apart in the source
[8] = Citrobacter freundii, Isolate No 49469, Enzyme NDM-1, unit assumed
[9] = Enterobacter aerogenes, Isolate No 8397, Enzyme VIM-1, unit assumed
[10] = Enterobacter aerogenes, Isolate No 47683, Enzyme VIM-12, unit assumed
[11] = Enterobacter cloacae, Isolate No 4, Enzyme VIM-6, unit assumed
[12] = Enterobacter cloacae, Isolate No 10, Enzyme IMP-26, unit assumed
[13] = Enterobacter cloacae, Isolate No 25, Enzyme IMP-4, unit assumed
[14] = Enterobacter cloacae, Isolate No 1068, Enzyme VIM-2, unit assumed
[15] = Enterobacter cloacae, Isolate No 1471, Enzyme VIM-1, unit assumed
[16] = Enterobacter cloacae, Isolate No 3686, Enzyme IMP-1, unit assumed
[17] = Enterobacter cloacae, Isolate No 53477, Enzyme NDM-1, unit assumed
[18] = Escherichia coli, Isolate No 17, Enzyme NDM-1, unit assumed
[19] = Escherichia coli, Isolate No 49, Enzyme NDM-1, unit assumed
[20] = Escherichia coli, Isolate No 53749, Enzyme NDM-1, unit assumed
[21] = Klebsiella oxytoca, Isolate No 24825, Enzyme IMP-26, unit assumed
[22] = Klebsiella oxytoca, Isolate No 31141, Enzyme VIM-23, unit assumed
[23] = Klebsiella pneumoniae, Isolate No 16, Enzyme VIM-5, unit assumed
[24] = Klebsiella pneumoniae, Isolate No 38, Enzyme NDM-1, unit assumed
[25] = Providencia stuartii, Isolate No 26582, Enzyme VIM-1, unit assumed
[26] = Serratia marcescens, Isolate No 35, Enzyme IMP-4, unit assumed
[27] = Serratia marcescens, Isolate No 36098, Enzyme IMP-19, unit assumed
[28] = E. coli JMI 2692 (NDM-1, TEM-1, CTX-M-15), substance alone, read-out: MIC

C[C@@H](O)[C@H]1C(=O)N2C(C(=O)O)=C(S[C@@H]3CN[C@H](C(=O)N(C)C)C3)[C@H](C)[C@H]12 [Meropenem, meropenem, reference compound]
MIC (E. coli ATCC 25922): 0.06 µg/mL
MIC (A. baumanii JMI 2659; A. baumanii JMI 2659 (Ges-14 (Cpase)), substance alone, read-out: MIC): 64 µg/mL
MIC (E.coli JMI 4103): 64 µg/mL
MIC (E. coli JMI 4080): ≤ 1 µg/mL
MIC (E. coli JMI 10768): ≤ 1 µg/mL
MIC (E. coli JMI 2665; JMI2665): ≤ 1 µg/mL
MIC (E. coli JMI 2671): 64 µg/mL
MIC (K. pneumo JMI 2699; read-out: MIC): 32 µg/mL
MIC (K. pneumo JMI 4088 [1]): 512 µg/mL
MIC (P. aerug JMI 2686 [2]): 512 µg/mL
MIC (E. coli JMI 2692): 256 µg/mL
MIC (K. pneumo JMI 2693): 8 µg/mL
MIC (K. pneumo JMI 2697): 64 µg/mL
MIC (K. pneumo JMI 2681; K. pneumo JMI 2681 (Oxa-48 (Cpase)), substance alone, read-out: MIC): 64 µg/mL
MIC (P. aerug JMI 149; P. aerug JMI 149 (Bla+++D+), substance alone, read-out: MIC): 4 µg/mL
MIC (E. cloacae JMI 36; E. cloacae JMI 36 (P99), substance alone, read-out: MIC): ≤ 1 µg/mL
MIC [3, 8]: 16 µg/mL
MIC [3, 9]: 64 µg/mL
MIC [3, 10]: 8 µg/mL
MIC [3, 11]: 2 µg/mL
MIC [3, 12]: 16 µg/mL
MIC [3, 13]: 16 µg/mL
MIC [3, 14]: 2 µg/mL
MIC [3, 15]: 2 µg/mL
MIC [3, 16]: 8 µg/mL
MIC [3, 17]: 32 µg/mL
MIC [3, 18]: 32 µg/mL
MIC [3, 19]: 8 µg/mL
MIC [3, 20]: 64 µg/mL
MIC [3, 21]: 32 µg/mL
MIC [3, 22]: 2 µg/mL
MIC [3, 23]: 8 µg/mL
MIC [3, 24]: 32 µg/mL
MIC [3, 25]: 1 µg/mL
MIC [3, 26]: 8 µg/mL
MIC [3, 27]: 8 µg/mL
MIC (K.pneumo JMI 4109): ≤ 1 µg/mL
MIC (K. pneumo JMI 2673): ≤ 1 µg/mL
MIC (K. pneumo JMI 2674 [4]): ≤ 1 µg/mL
MIC (E. coli JMI 10767): ≤ 1 µg/mL
MIC (E. coli JMI 10770): ≤ 1 µg/mL
MIC (E. coli JMI 11103): ≤ 1 µg/mL

CC(C)(O/N=C(\C(=O)N[C@@H]1C(=O)N2C(C(=O)[O-])=C(C[n+]3ccccc3)CS[C@H]12)c1csc(N)n1)C(=O)O [Ceftazidime, ceftazidime, reference compound]
MIC (E. coli ATCC 25922): 0.25 µg/mL
MIC (A. baumanii JMI 2659): 512 µg/mL
MIC (E.coli JMI 4103): > 512 µg/mL
MIC (E. coli JMI 4080): 64 µg/mL
MIC (E. coli JMI 10768): 8 µg/mL
MIC (E. coli JMI 2665; JMI2665, E. coli JMI 2665 (CMY-2 (Plasmid Cpase)), substance alone, read-out: MIC): 8 µg/mL
MIC (E. coli JMI 2671): 64 µg/mL
MIC (K. pneumo JMI 2674 [5]): 512 µg/mL
MIC (K. pneumo JMI 2699; read-out: MIC): > 512 µg/mL
MIC (P. aerug JMI 2686 [2]): 512 µg/mL
MIC (K. pneumo JMI 4106; read-out: MIC): > 512 µg/mL
MIC (E. coli JMI 2692; [28]): > 512 µg/mL
MIC (K. pneumo JMI 2693): > 512 µg/mL
MIC (K. pneumo JMI 2697): > 512 µg/mL
MIC (K. pneumo JMI 2681): 512 µg/mL
MIC (P. aerug JMI 149): 256 µg/mL
MIC (E. cloacae JMI 36): 128 µg/mL
MIC [3, 8]: > 256 µg/mL
MIC [3, 9]: > 256 µg/mL
MIC [3, 10]: 256 µg/mL
MIC [3, 11]: 256 µg/mL
MIC [3, 12]: > 256 µg/mL
MIC [3, 13]: > 256 µg/mL
MIC [3, 14]: 128 µg/mL
MIC ([3]; Enterobacter cloacae, Isolate No 1280, Enzyme VIM-5, unit assumed): 64 µg/mL
MIC [3, 15]: > 256 µg/mL
MIC ([3]; Enterobacter cloacae, Isolate No 1874, Enzyme IMP-21, unit assumed): 32 µg/mL
MIC [3, 16]: > 256 µg/mL
MIC [3, 17]: > 256 µg/mL
MIC ([3]; Escherichia coli, Isolate No 13, Enzyme IMP-1, unit assumed): 256 µg/mL
MIC [3, 18]: > 256 µg/mL
MIC [3, 19]: > 256 µg/mL
MIC [3, 20]: > 256 µg/mL
MIC [3, 21]: > 256 µg/mL
MIC [3, 22]: 128 µg/mL
MIC [3, 23]: > 256 µg/mL
MIC [3, 24]: > 256 µg/mL
MIC [3, 25]: > 256 µg/mL
MIC [3, 26]: 64 µg/mL
MIC [3, 27]: 128 µg/mL
MIC (K.pneumo JMI 4109): 8 µg/mL
MIC (K. pneumo JMI 2673): 32 µg/mL
MIC (K. pneumo JMI 4088 [6]): > 512 µg/mL
MIC (E. coli JMI 10767): ≤ 1 µg/mL
MIC (E. coli JMI 10770): 64 µg/mL
MIC (E. coli JMI 11103): 32 µg/mL

C[C@H]1[C@H](NC(=O)/C(=N\OC(C)(C)C(=O)O)c2csc(N)n2)C(=O)N1S(=O)(=O)O [Aztreonam, aztreonam, reference compound]
MIC (E. coli ATCC 25922): 0.25 µg/mL
MIC (E.coli JMI 4103): > 512 µg/mL
MIC (E. coli JMI 4080): 64 µg/mL
MIC (E. coli JMI 10768): 8 µg/mL
MIC (K. pneumo JMI 2674 [5]): 512 µg/mL
MIC (K. pneumo JMI 2699): 128 µg/mL
MIC (K. pneumo JMI 2699; read-out: MIC): > 512 µg/mL
MIC (K. pneumo JMI 4088 [1]): 512 µg/mL
MIC (K. pneumo JMI 4106): 512 µg/mL
MIC (K. pneumo JMI 4106; read-out: MIC): > 512 µg/mL
MIC (E. coli JMI 2692; [28]): > 512 µg/mL
MIC (K. pneumo JMI 2693): > 512 µg/mL
MIC (K. pneumo JMI 2697): > 512 µg/mL
MIC ([3]; Escherichia coli, Isolate No 13, Enzyme IMP-1): 16
MIC [3, 26]: ≤ 0.12 µg/mL
MIC (K. pneumo JMI 2674 [4]): 32 µg/mL
MIC (K. pneumo JMI 4088 [6]): > 512 µg/mL
MIC (P. aerug JMI 2686 [7]): > 512 µg/mL
MIC (E. coli JMI 10767): ≤ 1 µg/mL
MIC (E. coli JMI 10770): 64 µg/mL
MIC (E. coli JMI 11103): 32 µg/mL
